Reference: US20090118354A1, “Liquid Pharmaceutical Formulations of Docetaxel” (MAYNE PHARMA LIMITED, priority 2005, published 2009)

Assay: Accelerated stability testing: impurity analysis by reverse phase HPLC
Assay type: physicochemical
Protocol: Each of the formulations prepared was subjected to accelerated stability testing at 40° C.
The analysis of the impurities was undertaken using reverse phase High Performance Liquid Chromatography (HPLC). HPLC is a technique that is widely used and well known in the art. HPLC can be used to measure the potency of the docetaxel where potency is defined as a percentage of the initial concentration of docetaxel. HPLC can also be used to measure the relative proportions of known and unknown impurities in a docetaxel formulation. Any suitable HPLC method which will separate the impurities may be used.
Impurity levels were calculated by peak area normalisation.

[1] = Example 1, one month, accelerated stability 40° C.
[2] = Example 2, one month, accelerated stability 40° C.
[3] = Example 8, Initial (Docetaxel = docetaxel itself)

Impurity B (RRT = 0.89) (Example 1, initial time point): 0.08 % peak area
Impurity E (RRT = 1.33) (Example 1, initial time point): 0.07 % peak area
Impurity F (RRT = 1.47) (Example 1, initial time point): 0.10 % peak area
Total Impurities (Example 1, initial time point): 0.25 % peak area
Impurity B (RRT = 0.89) [1]: 0.08 % peak area
Impurity E (RRT = 1.33) [1]: 0.07 % peak area
Impurity F (RRT = 1.47) [1]: 0.10 % peak area
Total Impurities [1]: 0.25 % peak area
Impurity E (RRT = 1.34) (Example 2, initial time point): 0.16 % peak area
Impurity F (RRT = 1.48) (Example 2, initial time point): 0.09 % peak area
Total Impurities (Example 2, initial time point): 0.25 % peak area
Impurity E (RRT = 1.34) [2]: 0.16 % peak area
Impurity F (RRT = 1.48) [2]: 0.09 % peak area
Total Impurities [2]: 0.25 % peak area
Impurity RRT 0.866 [3]: 0.05 % peak area
Impurity RRT 1.821 [3]: 0.08 % peak area
Total impurity [3]: 0.13 % peak area
Compound: CC(=O)O[C@@]12CO[C@@H]1C[C@H](O)[C@@]1(C)C(=O)[C@H](O)C3=C(C)[C@@H](OC(=O)[C@H](O)[C@@H](NC(=O)OC(C)(C)C)c4ccccc4)C[C@@](O)([C@@H](OC(=O)c4ccccc4)[C@H]21)C3(C)C [Docetaxel, (2R,3S)-N-carboxy-3-phenylisoserine,N-tert-butylester, 13 ester with 5β-20-epoxy-1,2α,4,7β,10β,13α-hexahydroxytax-11-en-9-one 4-acetate 2 benzoate]
